The first test has as its system HEK-Blue IL-17 cells with rhIL-17A/A. Put plainly: HEK-Blue IL-17 cell assay (SEAP reporter, rhIL-17A/A stimulation). The format is cell-based, human. The settings on record: 20 hours incubation, absorbance at 405 nm, read-out: IC50 in HEK-Bule cell Assay. The method, then:
• 1. The test Compounds were 3-fold serial diluted from 10 mM for 10 doses in DMSO. • 2. Prepare Reference Compounds (IL-17A-Inhibitor-1) were 3-fold serial diluted from 1 mM for 10 doses in DMSO. • 3. Prepare 1000× Positive control (1 mM IL-17A-Inhibitor-1) and 1000× vehicle control (100% DMSO).
• a) Cells were cultured as the HEK-Blue™ IL-17 technical data sheet recommended. HEK-Blue IL-17 cells were assayed in the exponential growth phase. • b) Aspirate growth medium and rinse cells twice with PBS to remove phenol red. • c) Resuspend cells in test medium to a proper concentration. • d) Only cells with viability greater than 90% were used for assays. • e) Transfer 25 nl of compound dilutions into 384-well assay plates using Echo655; • f) Seed 25 ul of HEK-Blue IL-17 cells at 8,000 cells/well into 384-well plate with rhIL-17A/A. • g) Cells were incubated for 20 hours at 37° C. under 5% CO2 atmosphere. • h) Transfer 2 ul of cells supernatant into per well of 384-well assay plates. • i) Add 20 ul of PNPP substrate. • j) Measure the Absorbance at 405 nm on Envision 2105 plate reader.
RLU signal (LUMcmpd) is calculated for each well.
% Inhibition is calculated as follow: […]
Signalave_pc: The average signal for the positive controls across the plate.
Signalave_vc: The average signal for negative controls across the plate.
Calculate IC50 and Plot effect-dose curve of cmpds:
Calculate IC50 by fitting % Inhibition values and log of compound concentrations to nonlinear regression (dose response−variable slope) with Graphpad 8.0.
For `CC(C)n1nccc1C(=O)N[C@H](C(=O)Nc1ccc2c(c1)O[C@H](C1CC(F)(F)C1)C[C@H]2C(=O)N1CC(F)(F)C1)C1CCCCCC1` [Compound 226], the IC50 (in general, the concentration that gives 50% inhibition) is 48.9 nM.

The test is the same for the next values; noted with them: Homo sapiens, HEK-Blue, 20 h, 20 hours incubation, absorbance at 405 nm, read-out: IC50 in HEK-Bule cell Assay.
On to `CC(C)n1nccc1C(=O)N[C@H](C(=O)Nc1ccc2c(c1)OCC[C@H]2NC(=O)CCC(F)(F)F)C1CCCCCC1` [Compound 1], for which the IC50 came out at 209 nM. On the same count and under the same terms, in the case of `CC(C)n1nccc1C(=O)N[C@H](C(=O)Nc1ccc2c(c1)OCC[C@H]2NS(=O)(=O)CCC(F)(F)F)C1CCCCCC1` [Compound 5] it was 333 nM; in that of `CC(C)n1nccc1C(=O)N[C@H](C(=O)Nc1ccc2c(c1)OCC(C)(C)[C@H]2NC(=O)CCC(F)(F)F)C1CCCCCC1` [Compound 12], 317 nM.

Regarding `CC(C)n1nccc1C(=O)N[C@H](C(=O)Nc1ccc2c(c1)OC(C)(C)C[C@H]2NC(=O)CCC(F)(F)F)C1CCCCCC1` [Compound 13], the IC50 came out at 239 nM. Consider `CC(C)n1nccc1C(=O)N[C@H](C(=O)Nc1ccc2c(c1)OCC[C@H]2C(=O)N1CC(F)(F)C(F)(F)C1)C1CCCCCC1` [Compound 36], for which the IC50 worked out at 154 nM. Still for that read-out and setting: in the case of `CCC1(CC)CC(C(=O)N2CC(F)(F)C2)c2ccc(NC(=O)[C@@H](NC(=O)c3ccnn3C(C)C)C3CCCCCC3)cc2O1` (stereo partly shown) [Compound 108] it was 102 nM. Turning to `CC(C)n1nccc1C(=O)N[C@H](C(=O)Nc1ccc2c(c1)O[C@@H](C1CC(F)(F)C1)C[C@H]2C(=O)N1CC(F)(F)C1)C1CCCCCC1` [Compound 135], the IC50 came out at 18.9 nM. With `CC(C)n1nccc1C(=O)N[C@H](C(=O)Nc1ccc2c(c1)O[C@H](C1CC(F)(F)C1)C[C@H]2C(=O)N1CC(F)(F)C1)C1CCCCCC1` [Compound 136], the IC50 turned out to be 49 nM.

As to `CC(C)n1nccc1C(=O)N[C@H](C(=O)Nc1ccc2c(c1)OC1(CCOCC1)C[C@H]2C(=O)N1CC(F)(F)C1)C1CCCCCC1` [Compound 152], the IC50 was 7.49 nM. On the same count and under the same terms, in the case of `CC(C)n1nccc1C(=O)N[C@H](C(=O)Nc1ccc2c(c1)O[C@@H](C1CC(F)(F)C1)C[C@H]2C(=O)N1CC(F)(F)C1)C(C1CC1)C1CC1` [Compound 160] it was 42.1 nM; in that of `CC(C)n1nccc1C(=O)N[C@H](C(=O)Nc1ccc2c(c1)OC1(CCOCC1)C[C@H]2C(=O)N1CC(F)(F)C1)C(C1CC1)C1CC1` [Compound 162], 35.7 nM; in that of `CC(C)C1CC(C(=O)N2CC(C(F)(F)F)C2)c2ccc(NC(=O)[C@@H](NC(=O)c3ccnn3C(C)C)C3CCCCCC3)cc2O1` (stereo partly shown) [Compound 164], 72.6 nM.

As for `CC(C)C1CC(C(=O)N2CC3(C2)CC(F)(F)C3)c2ccc(NC(=O)[C@@H](NC(=O)c3ccnn3C(C)C)C3CCCCCC3)cc2O1` (stereo partly shown) [Compound 165], the IC50 turned out to be 127 nM. Turning to `CC(C)n1nccc1C(=O)N[C@H](C(=O)Nc1ccc2c(c1)OC(C)(C)CN2C(=O)N1CC(F)(F)C1)C1CCCCCC1` [Compound 166], the IC50 is 54.5 nM. Same read-out and setting: in the case of `CC(C)C1CN(C(=O)N2CC(F)(F)C2)c2ccc(NC(=O)[C@@H](NC(=O)c3ccnn3C(C)C)C3CCCCCC3)cc2O1` (stereo partly shown) [Compound 167] it was 30.4 nM; in that of `CC(C)n1nccc1C(=O)N[C@H](C(=O)Nc1ccc2c(c1)OC1(CCOCC1)CN2C(=O)N1CC(F)(F)C1)C1CCCCCC1` [Compound 169], 18.2 nM. The same measure, in the same setting: in the case of `O=C(N[C@H](C(=O)Nc1ccc2c(c1)OC(C1CC(F)(F)C1)CC2C(=O)N1CC(C(F)(F)F)C1)C1CCCCCC1)OCC1CC1(F)F` (stereo partly drawn) [Compound 189, (2,2-difluorocyclopropyl)methyl N—[(S)-cycloheptyl[(2-(3,3-difluorocyclobutyl)-4-(3-(trifluoromethyl)azetidine-1-carbonyl)-3,4-dihydro-2H-1-benzopyran-7-yl)carbamoyl]methyl]carbamate] it was 226 nM; in that of `O=C(N[C@H](C(=O)Nc1ccc2c(c1)OC1(CCOCC1)CC2C(=O)N1CC(F)(F)C1)C1CCCCCC1)OC[C@@H]1CC1(F)F` (stereo partly shown) [Compound 190], 367 nM; in that of `O=C(N[C@H](C(=O)Nc1ccc2c(c1)OC(C1CC(F)(F)C1)CC2C(=O)N1CC(F)(F)C1)C1CCCCCC1)OCc1cc(C(F)F)on1` (stereo partly shown) [Compound 191], 171 nM.

In the case of `O=C(N[C@H](C(=O)Nc1cc2c(cc1F)C(C(=O)N1CC(F)(F)C1)CC(C1CC(F)(F)C1)O2)C1CCCCCC1)OC[C@@H]1CC1(F)F` (stereo partly shown) [Compound 192], the IC50 stood at 267 nM.

Regarding `CC(C)n1nccc1C(=O)N[C@H](C(=O)Nc1cc2c(cc1F)C(C(=O)N1CC(F)(F)C1)CC(C1CC(F)(F)C1)O2)C1CCCCCC1` (stereo partly shown) [Compound 193], the IC50 is 39.7 nM. Turning to `CC(C)C1CC(C(=O)N2CC(F)(F)C2)c2ccc(NC(=O)[C@@H](NC(=O)OC3CC(F)(F)C3)C3CCCCCC3)cc2O1` (stereo partly shown) [Compound 194], the IC50 was determined as 564 nM. On the same count and under the same terms, for `CC(C)n1nccc1C(=O)N[C@H](C(=O)Nc1ccc2c(c1F)OC(C1CC(F)(F)C1)CC2C(=O)N1CC(F)(F)C1)C1CCCCCC1` (stereo partly shown) [Compound 195] the value was 131 nM. The same measure, in the same setting: for `CC(C)n1nccc1C(=O)N[C@H](C(=O)Nc1ccc2c(c1)OCCC2C(=O)N1CC(F)(F)C1)C1CCCCCC1` (stereo partly shown) [Compound 197] the value was 287 nM; for `CC(C)n1nccc1C(=O)N[C@H](C(=O)Nc1ccc2c(c1)OCC[C@H]2C(=O)N1CC(F)(F)C1)C1CCCCCC1` [Compound 198], 216 nM.

For the molecule `CC(C)n1nccc1C(=O)N[C@H](C(=O)Nc1ccc2c(c1)OC(C)(C)CC2C(=O)N1CC(F)(F)C1)C1CCCCCC1` (stereo partly shown) [Compound 200], the IC50 stood at 200 nM.

Turning to `CC(C)n1nccc1C(=O)N[C@H](C(=O)Nc1ccc2c(c1)OCCC2CC(=O)N1CC(F)(F)C(F)(F)C1)C1CCCCCC1` (stereo partly shown) [Compound 201], the IC50 amounted to 443 nM. Still for that read-out and setting: in the case of `CC(C)n1nccc1C(=O)N[C@H](C(=O)Nc1ccc2c(c1)CCCC2C(=O)N1CC(F)(F)C(F)(F)C1)C1CCCCCC1` (stereo partly shown) [Compound 203] it was 141 nM. `CC(C)n1nccc1C(=O)N[C@H](C(=O)Nc1ccc2c(c1)OCCC2C(=O)N1CCC(F)(F)CC1)C1CCCCCC1` (stereo partly shown) [Compound 206]: the IC50 came to 369 nM.

As to `CC(C)n1nccc1C(=O)N[C@H](C(=O)Nc1ccc2c(c1)SCCC2C(=O)N1CC(F)(F)C(F)(F)C1)C1CCCCCC1` (stereo partly shown) [Compound 207], the half-inhibitory concentration (IC50) was 92.9 nM. Still for that read-out and setting: for `CC(C)n1nccc1C(=O)N[C@H](C(=O)Nc1ccc2c(c1)S(=O)(=O)CCC2C(=O)N1CC(F)(F)C(F)(F)C1)C1CCCCCC1` (stereo partly shown) [Compound 208] the value was 290 nM.

In the case of `CC(C)n1nccc1C(=O)N[C@H](C(=O)Nc1ccc2c(c1)OC(C1CCC1)CC2C(=O)N1CC(F)(F)C(F)(F)C1)C1CCCCCC1` (stereo partly shown) [Compound 210], the IC50 worked out at 251 nM. In the case of `CC(C)n1nccc1C(=O)N[C@H](C(=O)Nc1ccc2c(c1)OC(C1CCCC1)CC2C(=O)N1CC(F)(F)C(F)(F)C1)C1CCCCCC1` (stereo partly shown) [Compound 211], the IC50 came out at 259 nM.

As to `CC(C)n1nccc1C(=O)N[C@H](C(=O)Nc1ccc2c(c1)OC(C1CCCCC1)CC2C(=O)N1CC(F)(F)C1)C1CCCCCC1` (stereo partly shown) [Compound 212], the IC50 is 213 nM.

Consider `CC(C)n1nccc1C(=O)N[C@H](C(=O)Nc1ccc2c(c1)OC(C(C)(C)C)CC2C(=O)N1CC(F)(F)C(F)(F)C1)C1CCCCCC1` (stereo partly shown) [Compound 213], for which the half-maximal inhibitory concentration (IC50) came to 112 nM.

`Cc1nonc1C(=O)N[C@H](C(=O)Nc1ccc2c(c1)OC(C(C)C)CC2C(=O)N1CC(F)(F)C1)C1CCCCCC1` (stereo partly shown) [Compound 214]: the IC50 is 335 nM.

For `CC(C)[C@H]1C[C@@H](C(=O)N2CC(F)(F)C(F)(F)C2)c2ccc(NC(=O)[C@@H](NC(=O)c3ccnn3C(C)C)C3CCCCCC3)cc2O1` [Compound 215], the IC50 was 40.7 nM.

As for `CC(C)[C@@H]1C[C@@H](C(=O)N2CC(F)(F)C(F)(F)C2)c2ccc(NC(=O)[C@@H](NC(=O)c3ccnn3C(C)C)C3CCCCCC3)cc2O1` [Compound 217], the IC50 was determined as 199 nM. The same measure, in the same setting: for `CC(C)[C@H]1C[C@H](C(=O)N2CC(F)(F)C(F)(F)C2)c2ccc(NC(=O)[C@@H](NC(=O)c3ccnn3C(C)C)C3CCCCCC3)cc2O1` [Compound 218] the value was 222 nM; for `CC(C)n1nccc1C(=O)N[C@H](C(=O)Nc1ccc2c(c1)CCCC2C(=O)N1CC(F)(F)C1)C1CCCCCC1` (stereo partly shown) [Compound 219], 276 nM; for `CC(C)CC1CC(C(=O)N2CC(F)(F)C2)c2ccc(NC(=O)[C@@H](NC(=O)c3ccnn3C(C)C)C3CCCCCC3)cc2O1` (stereo partly shown) [Compound 220], 181 nM.

On to `CC(C)n1nccc1C(=O)N[C@H](C(=O)Nc1ccc2c(c1)OC1(CCCCC1)CC2C(=O)N1CC(F)(F)C1)C1CCCCCC1` (stereo partly shown) [Compound 221], for which the IC50 is 116 nM.

Take `CC(C)n1nccc1C(=O)N[C@H](C(=O)Nc1ccc2c(c1)OC1(CCC1)CC2C(=O)N1CC(F)(F)C1)C1CCCCCC1` (stereo partly shown) [Compound 222]: the IC50 was determined as 255 nM. For `CC(C)n1nccc1C(=O)N[C@H](C(=O)Nc1ccc2c(c1)OC1(CCCC1)CC2C(=O)N1CC(F)(F)C1)C1CCCCCC1` (stereo partly shown) [Compound 223], the IC50 is 130 nM. For `CC(C)n1nccc1C(=O)N[C@H](C(=O)Nc1ccc2c(c1)OC1(CCC(C)(C)CC1)CC2C(=O)N1CC(F)(F)C1)C1CCCCCC1` (stereo partly shown) [Compound 224], the IC50 is 202 nM.

These data come from patent US20250011303A1, “SMALL MOLECULE MODULATORS OF IL-17A, METHODS OF MAKING AND METHODS OF USING THEREOF” (ASCLETIS BIOSCIENCE CO., LTD, priority 2023, published 2025).
